Assay results reported in patent publication US20090047221A1 (NIPRI LIMITED, priority 2004, published 2009).
Read-outs that look alike come from different tables or passages of the source.

What was measured:
Format in all cases: cell-based
MDA-MB-468 = assay: MTT assay (anti-proliferative activity); details: read-out: IC 50 MDA-MB-468
Description: (§1) The MTT assay was used initially to determine the anti-proliferative activity of the test compounds. In the MTT assay a yellow thiazolyl blue tetrazolium bromide salt (MTT) is reduced, in metabolically active cells, to form insoluble purple formazan crystals which are solubilised by the addition of dimethyl sulphoxide (DMSO).
(§2) Wells containing medium only were used as blanks. Following the attachment period, cells were treated with appropriate drug concentrations (20 μl added per well). 40 mg/ml stock drug solutions, in DMSO, were stored at −20° C. and on the day of drug treatment working solutions of 4 mg/ml were prepared in medium which was further diluted to achieve final drug dilution volumes of 20 μl. Initial screening was determined over a concentration range of 1-200 μg/ml. […] Cells were exposed to drug for 96 h continual exposure (37° C., 5% CO2). Following the 96 h incubation, 50 μl MTT solution (1 g MTT/500 ml PBS) was added per well and the plates were further incubated for 4 h (37° C., 5% CO2). After incubation the MTT and medium was removed from the wells and 100 μl DMSO added per well. Plates were agitated on an orbital mixer platform (Stuart Scientific) for 10 minutes. Absorbance was measured at 570 nm on a Biotrak II (Amersham Bioscience) plate reader. IC50 values were calculated comparing control and drug treated cells.

MCF-7 = assay: MTT assay (anti-proliferative activity); details: read-out: IC 50 MCF-7
Description: as §1, §2

SkMel28 = assay: MTT assay (anti-proliferative activity); details: read-out: IC 50 SkMel28
Description: as §1, §2

MalMe3M = assay: MTT assay (anti-proliferative activity); details: 96 h continual exposure, read-out: IC 50 MalMe3M
Description: as §1, §2

[1] = tested on: breast cancer (MDA-MB-468 and MCF-7 cell lines) and melanoma cell lines (MalMe3, SkMe128); assay: Cell cycle analysis by flow cytometry (propidium iodide); apoptosis as cells in sub G0/G1 (pre G0) peak; details: following treatment with IC70 concentration of compound
Description: Assessment of cell cycle analysis was performed using propidium iodide staining of cells and subsequent analysis on a Beckton Dickinson flow cytometer. […] The following day the medium was removed and replaced with 5 ml medium per flask containing the appropriate drug concentrations to be tested. 40 mg/ml stock drug solutions in DMSO were stores at −20° C. and on the day off drug treatment working solutions of 4 mg/ml were prepared in medium from which the final drug dilutions were prepared. Cells were maintained in an incubator (37° C., 5% CO2) for up to 96 h post treatment. After 24, 48, 72 or 96 h time points the medium from each flask was collected, stored on ice, and the remaining cells in the flasks were trypsinised by aiding 1 ml trypsin-EDTA solution to each flask. Cells were replaced into the incubator for 10 min to allow them to detach from the plastic plate. The cells in each flask were collected by adding the appropriate medium removed from each flask back to the corresponding flask and then placing medium containing both the attached and floating cells into a 15 ml tube. Cells were centrifuged at 4° C. for 5 min at 1500 rpm and the supernatant removed from each tube. The remaining cells were washed twice in ice cold PBS and then fixed in ice cold methanol overnight at −20° C. On the day of analysis of cells each tube was centrifuged at 4° C. for 5 min at 1500 rpm and the methanol removed and the cells washed twice in ice cold PBS. 20 μl propidium iodide solution (1 mg/ml) and 20 μl RNase A (10 mg/ml solution) were added to 1 ml PBS per tube and the cells were incubated for 30 min at 37° C. Cells were analysed on the flow cytometer and cell cycle changes were assessed.

HCT+/+ = assay: MTT assay (anti-proliferative activity)
Text: as §1, with “(DMSO). Absorbance readings can then be determined spectrophotometrically and a relationship established between control untreated cells and drug treated cells enabling the quantification of anti-proliferative changes as a result of drug treatment (Mosmann, 1983).” for “(DMSO).”
(§3) Wells containing medium only were used as blanks. Following the attachment period, cells were treated with appropriate drug concentrations (20 μl added per well). 40 mg/ml stock drug solutions, in DMSO, were stored at −20° C. and on the day of drug treatment working solutions of 4 mg/ml were prepared in medium which was further diluted to achieve final drug dilution volumes of 20 μl. Initial screening was determined over a concentration range of 1-200 μg/ml. For potent compounds the assay was repeated over a narrower concentration range to determine accurate IC50 values. Cells were exposed to drug for 96 h continual exposure (37° C., 5% CO2). Following the 96 h incubation, 50 μl MTT solution (1 g MTT/500 ml PBS) was added per well and the plates were further incubated for 4 h (37° C., 5% CO2). After incubation the MTT and medium was removed from the wells and 100 μl DMSO added per well. Plates were agitated on an orbital mixer platform (Stuart Scientific) for 10 minutes. Absorbance was measured at 570 nm on a Biotrak II (Amersham Bioscience) plate reader. IC50 values were calculated comparing control and drug treated cells.

LNCAP = assay: MTT assay (anti-proliferative activity)
Text: as §1, with “(DMSO). Absorbance readings can then be determined spectrophotometrically and a relationship established between control untreated cells and drug treated cells enabling the quantification of anti-proliferative changes as a result of drug treatment (Mosmann, 1983).” for “(DMSO).”
as §3

HT29 = assay: MTT assay (anti-proliferative activity)
Text: as §1, with “(DMSO). Absorbance readings can then be determined spectrophotometrically and a relationship established between control untreated cells and drug treated cells enabling the quantification of anti-proliferative changes as a result of drug treatment (Mosmann, 1983).” for “(DMSO).”
as §3

RKO = assay: MTT assay (anti-proliferative activity)
Text: as §1, with “(DMSO). Absorbance readings can then be determined spectrophotometrically and a relationship established between control untreated cells and drug treated cells enabling the quantification of anti-proliferative changes as a result of drug treatment (Mosmann, 1983).” for “(DMSO).”
as §3

H23 = assay: MTT assay (anti-proliferative activity)
Text: as §1, with “(DMSO). Absorbance readings can then be determined spectrophotometrically and a relationship established between control untreated cells and drug treated cells enabling the quantification of anti-proliferative changes as a result of drug treatment (Mosmann, 1983).” for “(DMSO).”
as §3

HCT−/− = assay: MTT assay (anti-proliferative activity)
Text: as §1, with “(DMSO). Absorbance readings can then be determined spectrophotometrically and a relationship established between control untreated cells and drug treated cells enabling the quantification of anti-proliferative changes as a result of drug treatment (Mosmann, 1983).” for “(DMSO).”
as §3

PNT2 = assay: MTT assay (anti-proliferative activity)
Text: as §1, with “(DMSO). Absorbance readings can then be determined spectrophotometrically and a relationship established between control untreated cells and drug treated cells enabling the quantification of anti-proliferative changes as a result of drug treatment (Mosmann, 1983).” for “(DMSO).”
as §3

PC3 = assay: MTT assay (anti-proliferative activity)
Text: as §1, with “(DMSO). Absorbance readings can then be determined spectrophotometrically and a relationship established between control untreated cells and drug treated cells enabling the quantification of anti-proliferative changes as a result of drug treatment (Mosmann, 1983).” for “(DMSO).”
as §3

ZR-75-1 = assay: MTT assay (anti-proliferative activity)
Text: as §1, with “(DMSO). Absorbance readings can then be determined spectrophotometrically and a relationship established between control untreated cells and drug treated cells enabling the quantification of anti-proliferative changes as a result of drug treatment (Mosmann, 1983).” for “(DMSO).”
as §3

[2] = Synergy with known cancer drugs measured using an MTT assay (FIGS. 9a-9c); details: ALM-54 at 0.5 μg
Text: as §1, with “(DMSO). Absorbance readings can then be determined spectrophotometrically and a relationship established between control untreated cells and drug treated cells enabling the quantification of anti-proliferative changes as a result of drug treatment (Mosmann, 1983).” for “(DMSO).”
as §3

[3] = tested on: caspase 3 in MDA-MB-468 breast cancer cells; assay: Western blotting (immunoblot), caspase 3 cleavage; details: concentrations similar to those required to kill MDA-MB-468 breast cancer cells
Description: Western blotting was used to assess drug induced changes of cellular proteins. Cells were seeded in P90 tissue culture vessels and treated with drugs at a range of concentrations for 72 and 96 h. Following incubation of cells for the required duration the medium was collected from the cells and attached cells were scraped from the tissue culture vessel and collected into the medium. Excess medium was removed by centrifugation at 4° C. for 5 minutes at […] and the supernatant removed from each tube. The remaining cells were washed twice in ice cold PBS and then incubated on ice with protein extraction buffer (10 mM Tris-HCl, 150 mM NaCl, 1 mM EDTA, 1% Triton-X, 0.1% SDS and a protease inhibitor) for 20 min. Cells were sonicated and centrifuged for 5 min at 4° C. and the supernatant removed for subsequent analysis. Protein samples were stored at −70° C. until analyses. 8, 10 or 12% acrylamide gels were prepared and used depending on size of protein to be determined. Protein concentrations were determined using the BCA™ (bicinchoninic acid) protein determination assay (Pierce) according to manufacturer's guidelines and 30-50 μg protein samples were loaded and separated on the acrylamide gels. Gels were ran at 150V for approximately 2 h at 4° C. Following separation of the protein samples each was transferred to a PVDF transfer membrane (Hybond-P) overnight at 4° C. at 40V. […]

H157 = assay: MTT assay (anti-proliferative activity); details: Homo sapiens, NCI-H157
Text: as §1, with “(DMSO). Absorbance readings can then be determined spectrophotometrically and a relationship established between control untreated cells and drug treated cells enabling the quantification of anti-proliferative changes as a result of drug treatment (Mosmann, 1983).” for “(DMSO).”
as §3

## CC1Cc2ccc(C(=O)NC(Cc3ccccc3)C(=O)O)c(O)c2C(=O)O1 (mixture of isomers) [ALM-54]
MDA-MB-468; 96 h continual exposure
  IC50: 10.8 µM
MCF-7; 96 h continual exposure
  IC50: 16.2 µM
SkMel28; 96 h continual exposure
  IC50: 46 µM
MalMe3M
  IC50: 13.5 µM
[1]
  % Cells in Pre G0 phase of Cell Cycle: 12.8%
HCT+/+
  IC50: 16.3 µM
LNCAP
  IC50: 4.7 µM
HT29
  IC50: 1.3 µM
RKO
  IC50: 2.7 µM
H23
  IC50: 2000 nM
HCT−/−
  IC50: 10.8 µM
PNT2
  IC50: 5.4 µM
PC3
  IC50: 5.4 µM
ZR-75-1
  IC50: 0.13 µM
[2]; FIG. 9a
  synergy with irinotecan: synergy
[2]; FIG. 9b
  synergy with vinorelbine: synergy
[2]; FIG. 9c
  synergy with cisplatin: synergy

## CC1Cc2cccc(O)c2C(=O)O1 (racemic) [ALM-9, Racemic Mellein]
[3]
  cleavage and activation of caspase 3 (immunoblot): promotes the cleavage and thus the activation of caspase 3
MDA-MB-468; Homo sapiens, MDA-MB-468, 96 h continual exposure
  IC50: 283 µM
MCF-7; Homo sapiens, MCF7, 96 h continual exposure
  IC50: 946 µM
SkMel28; Homo sapiens, SK-MEL-28, 96 h continual exposure
  IC50: 821 µM
MalMe3M; Homo sapiens, Malme-3M
  IC50: > 960 µM
[1]
  % Cells in Pre G0 phase of Cell Cycle: 30.4%
HCT+/+
  IC50: > 561 µM
LNCAP; Homo sapiens, LNCaP
  IC50: > 561 µM
H157
  IC50: > 561 µM
HT29; Homo sapiens, HT-29
  IC50: 561 µM
RKO; Homo sapiens, RKO
  IC50: 494 µM
H23; Homo sapiens, NCI-H23
  IC50: > 561000 nM
HCT−/−
  IC50: > 561 µM
PNT2; Homo sapiens, PNT2
  IC50: 421 µM
PC3; Homo sapiens, PC-3
  IC50: 421 µM
ZR-75-1; Homo sapiens, ZR-75-1
  IC50: 281 µM
